# Paper PMC9316000, “Preclinical Drug Pharmacokinetic, Tissue Distribution and Excretion Profiles of the Novel Limonin Derivate HY-071085 as an Anti-Inflammatory and Analgesic Candidate in Rats and Beagle Dogs” (Pharmaceuticals, 2022)
# Experiments:
# [1] = Pharmacokinetics after single-dose intragastric administration in rats; assay type: in vivo, Sprague Dawley rats; conditions: for bioavailability / MRT / AUC / AUC(0-inf) / CL/F / Tmax / Cmax / half-life / Vd/F: rat, plasma; for bioavailability: 3.25 mg/kg intragastric vs intravenous, from AUCs, read-out: absolute oral bioavailability; for AUC: read-out: AUC0-tn; for Vd/F: read-out: Vss/F
# Method: Blood samples were collected from the fundus venous plexus at various times within 8 h after administration in order to analyze the concentration of HY-071085 in plasma.
# The profiles of the mean plasma concentration of HY-071085 versus time after a single dose in rats are presented in Figure 2 and Figure 3, and the PK parameters are listed in Table 1. […] At the three doses, the AUCtn ratios of the female rats and male rats were 3.5, 3.9 and 2.4, respectively. The AUCtn ratio among male rats was 1:5.16:41.06, and among female rats was 1:5.71:28.20.
# In vivo PK profiling in the rats: Sprague Dawley rats (approximately 177–221 g in weight) were purchased from Shanghai Xipur-Bikai Experimental Animal Co., Ltd. (Shanghai, China). Before the experiment, several rats were randomly divided into several groups, half males and half females in each group, fasting but free to drink water for 12 h. The dosage of the rats was dependent on the drug pharmacology: the HY-071085 active pharmaceutical ingredients were administered with a dosage volume of 0.25 mL/100 g body weight. The whole-blood samples were centrifuged at 8000 rpm for 5 min, and the plasma samples were separated and stored at –80 °C until the analysis.
# (§1) According to the obtained plasma concentration time data, the pharmacokinetic parameters were calculated using Phoenix WinNonlin 8.1 software. The pharmacokinetic parameters—i.e., the area under the curve (AUC), mean residence time (MRT), clearance rate (Cl/F) and steady-state apparent distribution volume (Vss/F)—were calculated by the method of moments, which was estimated according to the following formulae: AUCtn=∑Ci+Ci−1ti−ti−1/2 AUC∞=AUCtn+Cm/λ AUMCtn=∑tiCi+ti−1Ci−1ti−ti−1/2 AUMC∞=AUMCtn+Ctntn/λ+1/λ^2 MRT=AUMC∞/AUC∞ Cl/F=Dose/AUC Vss/F=Cl∗MRT where Ctn is the plasma concentration of tn at the last point after administration, and the elimination rate constant was obtained by ln(concentration) time linear regression.
# (§2) Due to the drug having significant individual differences in rats, it could not be uniformly fitted with a PK atrioventricular model; as such, the pharmacokinetic parameters analyzed in this study were calculated using a non-atrioventricular model. The pharmacokinetic parameters are defined as follows: Cmax is the maximum blood concentration after administration and absorption, Tmax is the time required to reach Cmax, t1/2 is the time required to eliminate half of the plasma drug concentration after the drug distribution in the body reaches equilibrium, Cl/F is the apparent clearance rate, AUC0-tn is the area under the blood concentration time curve within the dosing interval, AUC0-∞ is the area under the plasma concentration time curve from 0 to infinity, MRT is the average time that all drug molecules stay in the body, and Vss/F is the steady-state apparent distribution volume, which is the product of the clearance rate and average residence time.
# [2] = Pharmacokinetics after single-dose intragastric administration in beagle dogs; assay type: in vivo; conditions: both sexes, dog, plasma; for bioavailability: 1.25 mg/kg intragastric vs intravenous, from AUC0-∞, read-out: absolute oral bioavailability; for AUC: read-out: AUC0-tn; for Vd/F: read-out: Vss/F
# Method: Male and female beagle dogs were administered low (1.25 mg/kg), medium (2.5 mg/kg) and high (5 mg/kg) doses of HY-071085 by gastric gavage, and blood samples were collected from the forelimb vein at various time points before and 8 h after administration in order to analyze the concentration of HY-071085 in the plasma. The profiles of the mean plasma concentration of HY-071085 versus time in dogs are presented in Figure 7, and the PK parameters are listed in Table 2. There was no gender difference in the pharmacokinetics in dogs (Figure 8). The AUCtn ratio for the three doses was 1:3.8:11.9, and the AUC0-∞ ratio between doses was 1:3.6:11.3, which was greater than the dose increase ratio (1:2:4), as shown in Figures S3 and S4.
# In vivo PK profiling in dogs: Beagle dogs (approximately 8–10 kg in weight) were purchased from Jiangsu Yadong Experimental Animal Research Institute Co. Ltd (Nanjing, China). Before the experiment, several beagle dogs were randomly divided into several groups, half males and half females in each group. Four cycles of single-dose administration experiments were carried out, and the cleaning period was 3–5 days. Repeated-dose administration was carried out after the end of four cycles of single-dose administrations and cleaning periods. According to the dosage for the rats, the dosage for the beagle dogs was converted via the body surface area method. The HY-071085 active pharmaceutical ingredients were administered with a dosage volume of 2 mL/kg body weight. The whole-blood samples were centrifuged at 8000 rpm for 5 min, and the plasma samples were separated and stored at –80 °C until the analysis.
# as §1, §2
# [3] = parameters: method as in earlier work; conditions: Temp 25℃; cited from earlier work
# [4] = Sprague Dawley, po, female rats, S-IG 3.25 mg/kg
# [5] = Sprague Dawley, po, female rats, S-IG 6.5 mg/kg
# [6] = Sprague Dawley, po, female rats, S-IG 13 mg/kg
# [7] = Sprague Dawley, po, male rats, S-IG 3.25 mg/kg
# [8] = Sprague Dawley, po, male rats, S-IG 6.5 mg/kg
# [9] = Sprague Dawley, po, male rats, S-IG 13 mg/kg
# [10] = Sprague-Dawley, po, female rats, S-IG 3.25 mg/kg
# [11] = Sprague-Dawley, po, female rats, S-IG 6.5 mg/kg
# [12] = Sprague-Dawley, po, female rats, S-IG 13 mg/kg
# [13] = Sprague-Dawley, po, male rats, S-IG 3.25 mg/kg
# [14] = Sprague-Dawley, po, male rats, S-IG 6.5 mg/kg
# [15] = Sprague-Dawley, po, male rats, S-IG 13 mg/kg
# [16] = po, single-dose intragastric 2.5 mg/kg
smiles,measurement,setting,value
"CC1(C)OC2CC(=O)OCC23C1C/C(=N\OCCN1CCOCC1)C1(C)C3CC[C@@]2(C)[C@H](c3ccoc3)OC(=O)C3OC312 (stereo partly drawn) [HY-071085, (12S,12aS,E)-12-(furan-3-yl)-6,6,8a,12a-tetramethyl-8-((2-morpholinoethoxy)imino)dodecahydro-1H,3H-oxireno [2,3-d]pyrano [4’,3’:3,3a]isobenzofuro [5,4-f]isochromene-3,10(9aH)-dione]",AUCtn ratio of female rats and male rats,[1]; S-IG 3.25 mg/kg,3.5
same,AUCtn ratio of female rats and male rats,[1]; S-IG 6.5 mg/kg,3.9
same,AUCtn ratio of female rats and male rats,[1]; S-IG 13 mg/kg,2.4
same,bioavailability,"[1]; Sprague Dawley, oral, male rats",2.83%
same,bioavailability,"[1]; Sprague Dawley, po, female rats",10.8%
same,MRT,[1]; [4],4.06 ± 0.82 h
same,AUC,[1]; [4],73.7 ± 25.3 ng·h/mL
same,AUC(0-inf),[1]; [5],429 ± 204 ng·h/mL
same,CL/F,[1]; [5],302 mL/min/kg
same,MRT,[1]; [5],2.57 ± 0.64 h
same,AUC,[1]; [5],421 ± 205 ng·h/mL
same,MRT,[1]; [6],2.29 ± 0.92 h
same,Tmax,[1]; [6],0.95 ± 0.51 h
same,AUC,[1]; [6],2080 ± 407 ng·h/mL
same,bioavailability,"[1]; Sprague Dawley, po, male rats",2.8%
same,MRT,[1]; [7],3.48 ± 1.98 h
same,AUC,[1]; [7],20.8 ± 3.01 ng·h/mL
same,AUC(0-inf),[1]; [8],125 ± 72.3 ng·h/mL
same,CL/F,[1]; [8],1180 mL/min/kg
same,MRT,[1]; [8],2.89 ± 1.87 h
same,AUC,[1]; [8],108 ± 54.2 ng·h/mL
same,MRT,[1]; [9],1.94 ± 0.39 h
same,AUC,[1]; [9],855 ± 290 ng·h/mL
same,Cmax,[1]; [10],20.4 ± 9.08 ng/mL
same,Tmax,[1]; [10],0.7 ± 0.73 h
same,half-life,[1]; [10],2.16 ± 1.13 h
same,Cmax,[1]; [11],145 ± 64.5 ng/mL
same,Tmax,[1]; [11],0.9 ± 0.68 h
same,half-life,[1]; [11],1.3 ± 0.36 h
same,Vd/F,[1]; [11],36.3 ± 23.2 L/kg
same,Cmax,[1]; [12],761 ± 322 ng/mL
same,half-life,[1]; [12],0.9 ± 0.42 h
same,Cmax,[1]; [13],11.3 ± 4.54 ng/mL
same,Tmax,[1]; [13],0.22 ± 0.04 h
same,half-life,[1]; [13],2.35 ± 1.27 h
same,Cmax,[1]; [14],107 ± 139 ng/mL
same,Tmax,[1]; [14],0.45 ± 0.59 h
same,half-life,[1]; [14],1.98 ± 1.04 h
same,Vd/F,[1]; [14],172 ± 70.3 L/kg
same,Cmax,[1]; [15],381 ± 152 ng/mL
same,Tmax,[1]; [15],0.85 ± 0.45 h
same,half-life,[1]; [15],1.21 ± 0.31 h
same,drug exposure of female rats relative to male rats,[1]; single-dose intragastric administration,about three times
same,bioavailability,[2]; oral,13.1%
same,bioavailability,[2]; po,~13.1%
same,AUC(0-inf),"[2]; po, S-IG 1.25 mg/kg",54.1 ± 25.4 ng·h/mL
same,CL/F,"[2]; po, S-IG 1.25 mg/kg",517 mL/min/kg
same,Cmax,"[2]; po, S-IG 1.25 mg/kg",37.9 ± 20.1 ng/mL
same,MRT,"[2]; po, S-IG 1.25 mg/kg",1.34 ± 0.53 h
same,Tmax,"[2]; po, S-IG 1.25 mg/kg",0.49 ± 0.43 h
same,half-life,"[2]; po, S-IG 1.25 mg/kg",0.88 ± 0.44 h
same,AUC,"[2]; po, S-IG 1.25 mg/kg",51.1 ± 24.9 ng·h/mL
same,Vd/F,"[2]; po, S-IG 1.25 mg/kg",35.3 ± 19.1 L/kg
same,AUC(0-inf),"[2]; po, S-IG 5 mg/kg",610 ± 235 ng·h/mL
same,CL/F,"[2]; po, S-IG 5 mg/kg",156 mL/min/kg
same,Cmax,"[2]; po, S-IG 5 mg/kg",436 ± 206 ng/mL
same,MRT,"[2]; po, S-IG 5 mg/kg",1.46 ± 0.49 h
same,Tmax,"[2]; po, S-IG 5 mg/kg",0.69 ± 0.55 h
same,half-life,"[2]; po, S-IG 5 mg/kg",0.83 ± 0.13 h
same,AUC,"[2]; po, S-IG 5 mg/kg",606 ± 236 ng·h/mL
same,Vd/F,"[2]; po, S-IG 5 mg/kg",11.5 ± 6.03 L/kg
same,AUC(0-inf),[2]; [16],195 ± 90 ng·h/mL
same,half-life,[2]; [16],0.83 ± 0.12 h
same,logP,[3],2.8023
